Assay results from ChEMBL document CHEMBL4765420, “Design, synthesis and biological evaluation of novel HDAC inhibitors with improved pharmacokinetic profile in breast cancer” (Eur J Med Chem, 2020).
Active and inactive are the calls of the source. No cut-off for these calls is given here.

How the values were obtained:
[1] = system: MDA-MB-231; assay: Antiproliferative activity against human MDA-MB-231 cells measured after 24 hrs by MTT assay; format: functional, cell-based; conditions: MDA-MB-231, 24 h
[2] = system: MDA-MB-231; assay: Induction of apoptosis in human MDA-MB-231 cells measured after 24 hrs by Annexin-V/propidium iodide staining based flow cytometry; format: functional, cell-based
[3] = system: MDA-MB-231; assay: Inhibition of cell migration in human MDA-MB-231 cells assessed as increase in E-cadherin expression at 2.5 to 10 uM measured after 24 hrs Western blot analysis; format: functional, cell-based; conditions: dose 2.5-10 µM
[4] = system: MDA-MB-231; assay: Induction of endoplasmic reticulum stress in human MDA-MB-231 cells assessed as increase in PERK expression at 2.5 to 10 uM measured after 24 hrs by Western blot analysis; format: functional, cell-based; conditions: dose 2.5-10 µM
[5] = system: MDA-MB-231; assay: Induction of apoptosis in human MDA-MB-231 cells assessed as increase in cleaved caspase-9 expression at 2.5 to 10 uM measured after 24 hrs by Western blot analysis; format: functional, cell-based; conditions: dose 2.5-10 µM
[6] = system: MDA-MB-231; assay: Induction of apoptosis in human MDA-MB-231 cells assessed as necrotic cells at 5 uM measured after 24 hrs by Annexin-V/propidium iodide staining based flow cytometry (reference value: 0.22 to 0.46%); format: functional
[7] = system: MDA-MB-231; assay: Antiproliferative activity against human MDA-MB-231 cells measured after 48 hrs by MTT assay; format: functional, cell-based; conditions: MDA-MB-231, 48 h
[8] = target: T1, Protein deacetylase HDAC6 (Homo sapiens) (UniProt Q9UBN7); assay: Inhibition of HDAC6 in human MDA-MB-231 cells assessed as increase in alpha-tubulin acetylation at 2.5 to 10 uM measured after 24 hrs by Western blot analysis; format: cell-based; conditions: dose 2.5-10 µM
T1 sequence (whole entry): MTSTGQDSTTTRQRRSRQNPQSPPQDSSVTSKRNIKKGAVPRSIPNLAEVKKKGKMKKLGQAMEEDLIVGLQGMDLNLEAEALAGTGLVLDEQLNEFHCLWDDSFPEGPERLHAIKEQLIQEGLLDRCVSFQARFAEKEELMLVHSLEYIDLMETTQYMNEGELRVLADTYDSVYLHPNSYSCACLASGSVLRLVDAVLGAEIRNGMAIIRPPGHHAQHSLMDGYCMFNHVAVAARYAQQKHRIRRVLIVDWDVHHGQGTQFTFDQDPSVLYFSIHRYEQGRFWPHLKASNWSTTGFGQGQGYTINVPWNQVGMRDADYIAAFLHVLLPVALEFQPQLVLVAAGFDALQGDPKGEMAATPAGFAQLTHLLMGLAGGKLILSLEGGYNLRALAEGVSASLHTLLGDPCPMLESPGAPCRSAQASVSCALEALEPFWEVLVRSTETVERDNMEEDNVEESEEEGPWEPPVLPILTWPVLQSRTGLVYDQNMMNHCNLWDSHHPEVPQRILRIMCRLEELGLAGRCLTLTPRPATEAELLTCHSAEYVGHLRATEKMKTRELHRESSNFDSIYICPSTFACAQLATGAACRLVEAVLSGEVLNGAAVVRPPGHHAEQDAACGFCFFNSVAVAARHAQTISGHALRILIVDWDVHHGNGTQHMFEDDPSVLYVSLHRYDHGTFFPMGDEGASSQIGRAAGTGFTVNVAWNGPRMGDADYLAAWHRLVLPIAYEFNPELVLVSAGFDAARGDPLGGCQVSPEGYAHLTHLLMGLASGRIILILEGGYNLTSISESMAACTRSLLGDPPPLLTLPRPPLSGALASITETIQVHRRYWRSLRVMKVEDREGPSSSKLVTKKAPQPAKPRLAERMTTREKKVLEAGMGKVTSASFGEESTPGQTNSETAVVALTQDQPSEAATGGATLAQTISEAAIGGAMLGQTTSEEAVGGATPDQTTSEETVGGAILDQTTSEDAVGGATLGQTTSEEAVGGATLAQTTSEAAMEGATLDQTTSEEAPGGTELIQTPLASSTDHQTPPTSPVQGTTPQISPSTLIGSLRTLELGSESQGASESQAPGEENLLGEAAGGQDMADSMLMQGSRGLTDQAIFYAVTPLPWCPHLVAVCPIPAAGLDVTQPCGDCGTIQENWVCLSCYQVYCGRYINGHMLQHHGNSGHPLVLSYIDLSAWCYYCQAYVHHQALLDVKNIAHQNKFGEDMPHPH

[9] = target: Histone deacetylase 2 (Homo sapiens, UniProt Q92769); assay: Inhibition of human full-length C-terminal FLAG-tagged HDAC2 expressed in baculovirus infected Sf9 insect cells using Ac-Leu-Gly-Lys(Ac)-AMC as substrate measured after 30 mins by fluorescence assay; format: cell-based
Chain of Histone deacetylase 2 (Q92769 whole entry): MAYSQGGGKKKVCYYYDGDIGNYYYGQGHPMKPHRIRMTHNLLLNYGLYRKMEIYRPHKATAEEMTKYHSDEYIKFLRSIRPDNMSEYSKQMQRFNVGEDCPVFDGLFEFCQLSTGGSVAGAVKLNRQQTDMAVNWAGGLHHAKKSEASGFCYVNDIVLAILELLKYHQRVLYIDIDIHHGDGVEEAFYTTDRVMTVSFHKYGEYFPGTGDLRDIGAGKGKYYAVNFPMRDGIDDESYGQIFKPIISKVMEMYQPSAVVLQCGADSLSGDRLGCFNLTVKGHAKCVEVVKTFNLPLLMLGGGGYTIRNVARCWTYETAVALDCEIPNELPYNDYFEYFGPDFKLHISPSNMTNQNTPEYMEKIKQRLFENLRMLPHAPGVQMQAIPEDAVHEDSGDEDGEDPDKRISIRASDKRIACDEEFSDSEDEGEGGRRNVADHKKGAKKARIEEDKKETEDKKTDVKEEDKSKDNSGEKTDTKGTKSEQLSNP

[10] = system: MDA-MB-231; assay: Induction of apoptosis in human MDA-MB-231 cells assessed as late apoptotic cells at 5 uM measured after 24 hrs by Annexin-V/propidium iodide staining based flow cytometry (reference value: 0.71 to 2.94%); format: functional
[11] = target: T2, Histone deacetylase 8 (Homo sapiens, UniProt Q9BY41); assay: Inhibition of recombinant human full-length C-terminal His-tagged HDAC8 expressed in baculovirus infected Sf9 insect cells using Ac-Leu-Gly-Lys(Tfa)-AMC as substrate measured after 30 mins by fluorescence assay
T2 sequence (Q9BY41 whole entry): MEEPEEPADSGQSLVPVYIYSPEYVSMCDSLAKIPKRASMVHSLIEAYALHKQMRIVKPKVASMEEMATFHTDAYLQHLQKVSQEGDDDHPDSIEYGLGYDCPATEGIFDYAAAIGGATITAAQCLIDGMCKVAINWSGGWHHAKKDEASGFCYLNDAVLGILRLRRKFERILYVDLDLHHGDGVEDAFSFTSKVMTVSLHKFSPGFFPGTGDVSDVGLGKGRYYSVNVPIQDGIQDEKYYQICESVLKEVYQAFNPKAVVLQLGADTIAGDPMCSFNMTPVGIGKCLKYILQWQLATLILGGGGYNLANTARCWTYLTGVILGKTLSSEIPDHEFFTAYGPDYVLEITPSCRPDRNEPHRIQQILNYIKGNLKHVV

[12] = target: Histone deacetylase 5 (Homo sapiens, UniProt Q9UQL6); assay: Inhibition of recombinant human full-length N-terminal GST-tagged HDAC5 expressed in baculovirus infected Sf9 insect cells using AcLeu-Gly-Lys(Tfa)-AMC as substrate measured after 30 mins by fluorescence assay
Chain of Histone deacetylase 5 (Q9UQL6 whole entry): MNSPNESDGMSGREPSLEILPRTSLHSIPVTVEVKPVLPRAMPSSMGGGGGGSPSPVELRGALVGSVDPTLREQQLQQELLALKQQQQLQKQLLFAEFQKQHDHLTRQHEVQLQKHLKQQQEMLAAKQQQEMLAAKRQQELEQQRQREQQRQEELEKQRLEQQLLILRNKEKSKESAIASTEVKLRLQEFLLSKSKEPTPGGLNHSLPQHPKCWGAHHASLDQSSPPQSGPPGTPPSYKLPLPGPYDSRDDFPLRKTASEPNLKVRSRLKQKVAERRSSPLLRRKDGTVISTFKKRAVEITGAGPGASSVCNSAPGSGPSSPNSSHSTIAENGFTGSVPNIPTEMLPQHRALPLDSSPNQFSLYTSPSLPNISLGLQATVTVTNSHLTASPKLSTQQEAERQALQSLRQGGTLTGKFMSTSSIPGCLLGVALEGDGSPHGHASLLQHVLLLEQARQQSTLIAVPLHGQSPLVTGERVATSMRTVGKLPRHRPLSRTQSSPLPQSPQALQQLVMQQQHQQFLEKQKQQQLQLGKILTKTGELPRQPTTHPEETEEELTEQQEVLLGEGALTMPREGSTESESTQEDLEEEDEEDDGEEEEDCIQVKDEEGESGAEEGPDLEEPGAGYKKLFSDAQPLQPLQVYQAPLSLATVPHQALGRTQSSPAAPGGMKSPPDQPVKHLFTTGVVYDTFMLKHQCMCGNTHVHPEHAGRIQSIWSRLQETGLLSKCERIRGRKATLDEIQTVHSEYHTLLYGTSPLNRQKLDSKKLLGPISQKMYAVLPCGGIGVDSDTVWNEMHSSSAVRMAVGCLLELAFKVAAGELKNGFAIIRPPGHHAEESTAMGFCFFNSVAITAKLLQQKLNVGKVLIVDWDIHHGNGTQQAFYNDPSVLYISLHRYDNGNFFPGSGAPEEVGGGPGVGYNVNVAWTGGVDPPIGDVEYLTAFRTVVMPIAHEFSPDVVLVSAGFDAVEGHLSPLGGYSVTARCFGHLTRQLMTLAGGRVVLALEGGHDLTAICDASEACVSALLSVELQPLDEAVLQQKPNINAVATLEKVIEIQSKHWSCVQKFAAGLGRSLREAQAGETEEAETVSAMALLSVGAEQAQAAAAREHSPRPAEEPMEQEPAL

[13] = system: MDA-MB-231; assay: Induction of apoptosis in human MDA-MB-231 cells assessed as early apoptotic cells at 2.5 uM measured after 24 hrs by Annexin-V/propidium iodide staining based flow cytometry (reference value: 0.69 to 0.92%); format: functional
[14] = target: T1, Protein deacetylase HDAC6 (Homo sapiens); assay: Inhibition of HDAC6 in human MDA-MB-231 cells assessed as increase in HSP90 acetylation at 2.5 to 10 uM measured after 24 hrs by Western blot analysis; format: cell-based; conditions: dose 2.5-10 µM
[15] = system: MDA-MB-231; assay: Induction of autophagy in human MDA-MB-231 cells assessed as increase in LC3II expression at 2.5 to 10 uM measured after 24 hrs by Western blot analysis; format: functional, cell-based; conditions: dose 2.5-10 µM

IC50 [1]: 2370 nM
IC50 [7]: 1520 nM
inhibition [8]: Active
IC50 [9]: 136 nM
IC50 [11]: 404 nM
IC50 [12]: 688 nM
inhibition [14]: Active
Compound: COc1cc(OC)c2c(N3CCS(=O)(=O)CC3)nc(-c3cc(C)c(OCCCCCC(=O)NO)c(C)c3)nc2c1
Activity [2]: Dose-dependent effect
Activity [3]: Active
Activity [4]: Active
Activity [5]: Active
Activity [6]: 0.41%
Activity [10]: 11.79%
Activity [13]: 11.77%
Activity [15]: Active
